ChEMBL document CHEMBL1136297, “Synthesis and pharmacological evaluation of (Z)-9-(heteroarylmethylene)-7-azatricyclo[4.3.1.0(3,7)]decanes: thiophene analogues as potent norepinephrine transporter inhibitors” (Bioorg Med Chem Lett, 2003)

What was measured:
[1] = target: Sodium-dependent dopamine transporter (Rattus norvegicus, UniProt P23977); experiment: Ability to inhibit reuptake of dopamine ([3H]DA) at dopamine transporter of rat striatum; type: tissue-based
[2] = target: Norepinephrine transporter (Rattus norvegicus, UniProt Q9WTR4); experiment: Ability to inhibit reuptake of norepinephrine ([3H]NE) at norepinephrine transporter of rat parietal/occipital region
[3] = target: Sodium-dependent serotonin transporter (Rattus norvegicus, UniProt P31652); experiment: Ability to inhibit reuptake of serotonin ([3H]5-HT) at serotonin transporter of rat midbrian
[4] = Ratio of inhibitory activity against reuptake of norepinephrine ([3H]-NE) to that of serotonin ([3H]-5-HT)[…]; type: functional
[5] = Inhibition of reuptake of norepinephrine compared to serotonin.; type: functional
[6] = Inhibition of reuptake of serotonin compared to dopamine.; type: functional
[7] = Inhibition of reuptake of norepinephrine compared to dopamine.; type: functional

Sequence of Sodium-dependent dopamine transporter (P23977 whole entry): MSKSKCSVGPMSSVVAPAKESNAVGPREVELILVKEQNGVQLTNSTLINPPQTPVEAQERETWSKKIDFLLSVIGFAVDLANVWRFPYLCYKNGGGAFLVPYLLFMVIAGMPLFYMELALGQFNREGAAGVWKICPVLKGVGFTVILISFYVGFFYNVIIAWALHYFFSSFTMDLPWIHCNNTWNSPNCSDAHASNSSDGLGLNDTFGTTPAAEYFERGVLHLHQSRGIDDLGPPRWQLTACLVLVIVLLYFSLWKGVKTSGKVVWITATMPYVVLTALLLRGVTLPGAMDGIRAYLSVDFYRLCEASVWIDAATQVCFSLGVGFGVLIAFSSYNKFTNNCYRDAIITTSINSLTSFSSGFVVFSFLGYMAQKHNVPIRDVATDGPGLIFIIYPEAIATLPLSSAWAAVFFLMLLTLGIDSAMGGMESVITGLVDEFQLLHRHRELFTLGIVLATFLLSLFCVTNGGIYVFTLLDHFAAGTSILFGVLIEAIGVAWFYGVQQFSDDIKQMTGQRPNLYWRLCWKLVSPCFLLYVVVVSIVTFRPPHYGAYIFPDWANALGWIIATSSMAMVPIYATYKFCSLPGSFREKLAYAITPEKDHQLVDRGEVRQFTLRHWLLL
Sequence of Norepinephrine transporter (Q9WTR4 whole entry): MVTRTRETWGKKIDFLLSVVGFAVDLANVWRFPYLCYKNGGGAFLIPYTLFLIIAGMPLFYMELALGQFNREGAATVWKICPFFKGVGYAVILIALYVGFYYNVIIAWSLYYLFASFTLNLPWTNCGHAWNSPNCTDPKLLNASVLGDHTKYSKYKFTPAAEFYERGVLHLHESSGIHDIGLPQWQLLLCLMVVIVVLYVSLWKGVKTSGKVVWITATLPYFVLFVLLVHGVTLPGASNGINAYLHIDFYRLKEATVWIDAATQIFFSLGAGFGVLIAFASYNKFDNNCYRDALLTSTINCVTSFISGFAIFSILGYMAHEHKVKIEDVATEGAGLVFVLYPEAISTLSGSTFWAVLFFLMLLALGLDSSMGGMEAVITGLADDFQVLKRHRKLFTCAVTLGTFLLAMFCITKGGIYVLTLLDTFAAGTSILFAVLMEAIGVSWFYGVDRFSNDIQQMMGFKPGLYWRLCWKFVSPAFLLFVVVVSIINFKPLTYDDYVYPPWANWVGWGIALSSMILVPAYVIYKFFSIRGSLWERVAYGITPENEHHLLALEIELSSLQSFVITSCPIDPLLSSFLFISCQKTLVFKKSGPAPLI
Sequence of Sodium-dependent serotonin transporter (P31652 whole entry): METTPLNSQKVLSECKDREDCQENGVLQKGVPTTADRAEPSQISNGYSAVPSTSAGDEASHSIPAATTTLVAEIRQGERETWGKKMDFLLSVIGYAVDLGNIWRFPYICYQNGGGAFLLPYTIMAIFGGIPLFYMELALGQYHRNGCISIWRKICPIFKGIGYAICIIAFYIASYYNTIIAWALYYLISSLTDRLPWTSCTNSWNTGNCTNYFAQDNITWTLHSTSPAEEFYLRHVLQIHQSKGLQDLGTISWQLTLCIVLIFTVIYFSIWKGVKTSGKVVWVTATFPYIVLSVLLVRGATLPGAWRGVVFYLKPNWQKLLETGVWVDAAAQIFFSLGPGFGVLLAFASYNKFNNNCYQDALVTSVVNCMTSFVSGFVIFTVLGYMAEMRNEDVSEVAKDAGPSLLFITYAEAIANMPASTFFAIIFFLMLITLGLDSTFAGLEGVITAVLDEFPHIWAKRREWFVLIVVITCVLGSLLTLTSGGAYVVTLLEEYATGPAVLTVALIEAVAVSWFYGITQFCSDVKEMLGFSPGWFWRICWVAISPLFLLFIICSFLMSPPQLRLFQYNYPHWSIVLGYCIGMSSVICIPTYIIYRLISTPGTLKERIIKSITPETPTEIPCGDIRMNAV

SMILES | Ki [1] [nM] | Ki [2] [nM] | Ki [3] [nM] | Ratio [4] | Ratio [5] | Ratio [6] | Ratio [7]
COC(=O)C1C2CC3CCC1N3C/C2=C\c1cccnc1 (stereo unspecified) | > 10000 | 12700 | 4580 | 2.77 |  |  | 
COC(=O)C1C2CC3CCC1N3C/C2=C\c1cnc(OC)nc1OC (stereo unspecified) | > 10000 | 9450 | 5140 | 1.84 |  |  | 
COC(=O)C1C2CC3CCC1N3C/C2=C\c1ccc(C)s1 (stereo unspecified) |  |  |  |  | 0.03 | 0.44 | 0.01
CCCc1ccc(/C=C2\CN3C4CCC3C(C(=O)OC)C2C4)s1 (stereo unspecified) | 1600 | 624 | 269 |  | 2.32 | 0.17 | 0.39
COC(=O)C1C2CC3CCC1N3C/C2=C\c1ccc(-c2ccc(OC)cc2)s1 (stereo unspecified) | 371 | 10.3 | 531 |  | 0.02 | 1.43 | 0.03
COC(=O)C1C2CC3CCC1N3C/C2=C\c1ccc(-c2ccc(Cl)s2)s1 (stereo unspecified) | 242 | 58 | 93 |  | 0.62 | 0.38 | 0.24
COC(=O)C1C2CC3CCC1N3C/C2=C\c1ccc(Cl)nc1 (stereo unspecified) | > 10000 | 6510 | 810 | 8.03 |  |  | 
COC(=O)C1C2CC3CCC1N3C/C2=C\c1ccsc1 (stereo unspecified) | 485 | 33 | 3140 |  | 0.01 | 6.47 | 0.07
COC(=O)C1C2CC3CCC1N3C/C2=C\c1ccc(Br)s1 (stereo unspecified) | 147 | 20 | 36 |  | 0.57 | 0.24 | 0.14
CCCCc1ccc(/C=C2\CN3C4CCC3C(C(=O)OC)C2C4)s1 (stereo unspecified) | 4700 | 364 | 665 |  | 0.55 | 0.14 | 0.08
COC(=O)C1C2CC3CCC1N3C/C2=C\c1ccc(I)s1 (stereo unspecified) |  |  |  |  | 0.17 | 0.08 | 0.01
COC(=O)C1C2CC3CCC1N3C/C2=C\c1ccc(-c2cccs2)s1 (stereo unspecified) | 298 | 98 | 48 |  | 2.04 | 0.16 | 0.33
COC(=O)C1C2CC3CCC1N3C/C2=C\c1cccs1 (stereo unspecified) |  |  |  |  | 0.01 | 7.63 | 0.1
COC(=O)C1C2CC3CCC1N3C/C2=C\c1cnccn1 (stereo unspecified) | 6570 | 1930 | 7140 |  | 0.27 | 1.09 | 0.29
COC(=O)C1C2CC3CCC1N3C/C2=C\c1ccc(-c2ccc(SC)cc2)s1 (stereo unspecified) | 1650 | 273 | 3320 |  | 0.08 | 2.01 | 0.16
COC(=O)C1C2CC3CCC1N3C/C2=C\c1ccc(-c2ccccc2)s1 (stereo unspecified) | 179 | 13.5 | 71 |  | 0.19 | 0.4 | 0.08
COC(=O)C1C2CC3CCC1N3C/C2=C\c1ccccn1 (stereo unspecified) |  | 115 | 3150 |  | 0.04 | 2.97 | 0.11
COC(=O)C1C2CC3CCC1N3C/C2=C\c1ccc(OC)s1 (stereo unspecified) | > 10000 | 2250 | 544 | 4.12 |  |  | 
COC(=O)C1C2CC3CCC1N3C/C2=C\c1cc(C)c(Br)s1 (stereo unspecified) | 1280 | 36.8 | 6.75 |  | 5.45 | 0.01 | 0.03
CCc1ccc(/C=C2\CN3C4CCC3C(C(=O)OC)C2C4)s1 (stereo unspecified) | > 10000 | 2130 | 346 | 6.16 |  |  | 
COC(=O)C1C2CC3CCC1N3C/C2=C\c1nccs1 (stereo unspecified) | 5090 | 855 | > 10000 | 0.17 |  |  | 
COC(=O)C1C2CC3CCC1N3C/C2=C\c1cccc(OC)n1 (stereo unspecified) | 14000 | 308 | 477 |  | 0.65 | 0.03 | 0.02
COC(=O)C1C2CC3CCC1N3C/C2=C\c1ccc(Cl)s1 (stereo unspecified) | 130 | 9.7 | 53 |  | 0.18 | 0.41 | 0.07
